Tests used:
TNKS1 = biological target: T1, TNKS1 (Homo sapiens, UniProt O95271); experiment: TNKS1 activity ELISA (autoparsylation assay); type: biochemical; conditions: GST-tagged Tnks-1 (1023-1327 aa)
T1 construct: GST-tagged Tnks-1 (1023-1327 aa, prepared in-house); made in house
Summary of the method: (§1)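 Autoparsylation ELISA: biotinylated NAD serves as co-substrate for plate-bound GST-TNKS1/TNKS2, incubated with test compounds. Readout is HRP luminescence after streptavidin-HRP binding, referenced to the no-inhibitor reaction, from which IC50 values are derived.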

PARP-1 = biological target: T2, PARP-1 (Homo sapiens, UniProt P09874); experiment: PARP-1 autoparsylation assay (HTRF); type: biochemical; conditions: His-tagged Parp-1, autoparsylation HTRF
T2 construct: purchased Enzo Life Sciences GmbH, Lörrach, Germany
Summary of the method: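 HTRF emission ratio reports biotin-ADP-ribose self-transfer onto His-tagged PARP-1, with biotinylated NAD/NAD as co-substrate, sensed via cryptate anti-His and Xlent-streptavidin.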

Tankyrases = conditions: read-out: EC50 [M] TNKS cellular assay; DLD1 cells, 24 hours, Axin2 increase
TNKS2 = biological target: T3, TNKS2 (Homo sapiens, UniProt Q9H2K2); experiment: TNKS2 activity ELISA (autoparsylation assay); type: biochemical; conditions: GST-tagged Tnks-2 (873-1166 aa); read-out: IC50 [M] TNKS2 ELISA
T3 construct: GST-tagged Tnks-2 (873-1166 aa, prepared in-house); made in house
Summary of the method: as §1

T3 sequence (Q9H2K2 873-1166): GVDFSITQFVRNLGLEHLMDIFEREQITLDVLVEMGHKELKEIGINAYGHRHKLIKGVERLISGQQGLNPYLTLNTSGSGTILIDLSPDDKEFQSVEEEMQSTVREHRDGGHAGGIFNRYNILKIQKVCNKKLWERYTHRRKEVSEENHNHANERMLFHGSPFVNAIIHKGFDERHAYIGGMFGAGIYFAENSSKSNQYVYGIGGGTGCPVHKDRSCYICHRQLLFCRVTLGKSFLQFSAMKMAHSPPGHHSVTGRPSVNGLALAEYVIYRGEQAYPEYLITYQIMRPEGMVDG
T2 sequence (P09874 whole entry): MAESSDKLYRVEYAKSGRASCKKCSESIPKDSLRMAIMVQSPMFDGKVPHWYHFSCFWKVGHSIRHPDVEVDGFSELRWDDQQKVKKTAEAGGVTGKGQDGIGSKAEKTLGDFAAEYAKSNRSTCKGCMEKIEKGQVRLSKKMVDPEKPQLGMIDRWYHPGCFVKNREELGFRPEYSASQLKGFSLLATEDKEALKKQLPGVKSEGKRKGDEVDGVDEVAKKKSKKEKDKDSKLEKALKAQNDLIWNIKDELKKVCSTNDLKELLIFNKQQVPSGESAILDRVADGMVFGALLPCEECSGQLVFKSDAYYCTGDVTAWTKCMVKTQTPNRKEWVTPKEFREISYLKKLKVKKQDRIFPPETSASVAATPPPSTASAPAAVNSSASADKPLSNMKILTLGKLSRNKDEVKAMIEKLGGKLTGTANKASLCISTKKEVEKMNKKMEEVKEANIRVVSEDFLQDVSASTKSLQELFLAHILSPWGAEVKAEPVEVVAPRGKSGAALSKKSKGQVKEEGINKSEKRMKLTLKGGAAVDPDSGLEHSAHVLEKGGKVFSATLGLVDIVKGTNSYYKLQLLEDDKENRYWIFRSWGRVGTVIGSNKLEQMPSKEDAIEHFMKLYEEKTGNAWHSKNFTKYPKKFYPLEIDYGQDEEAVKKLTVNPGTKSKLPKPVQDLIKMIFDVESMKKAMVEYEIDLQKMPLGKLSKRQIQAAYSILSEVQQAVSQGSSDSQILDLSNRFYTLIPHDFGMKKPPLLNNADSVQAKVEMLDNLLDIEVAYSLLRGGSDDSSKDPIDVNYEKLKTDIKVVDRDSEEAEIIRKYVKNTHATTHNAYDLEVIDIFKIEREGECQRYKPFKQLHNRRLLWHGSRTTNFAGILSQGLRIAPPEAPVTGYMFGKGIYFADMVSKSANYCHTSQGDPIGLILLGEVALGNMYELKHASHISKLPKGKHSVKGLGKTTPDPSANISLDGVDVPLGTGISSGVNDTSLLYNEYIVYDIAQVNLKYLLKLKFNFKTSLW
T1 sequence (O95271 1023-1327): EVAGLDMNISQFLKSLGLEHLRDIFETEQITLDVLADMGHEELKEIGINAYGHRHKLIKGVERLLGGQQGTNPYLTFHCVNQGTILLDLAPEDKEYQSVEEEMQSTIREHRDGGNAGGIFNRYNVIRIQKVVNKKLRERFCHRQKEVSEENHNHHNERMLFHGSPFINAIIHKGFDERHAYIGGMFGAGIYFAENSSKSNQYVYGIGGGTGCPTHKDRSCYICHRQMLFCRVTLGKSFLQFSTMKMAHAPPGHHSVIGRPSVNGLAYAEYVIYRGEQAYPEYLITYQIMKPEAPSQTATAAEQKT

SMILES | IC50 (TNKS1) [nM] | IC50 (PARP-1) [nM] | EC50 (Tankyrases) [M] | IC50 (TNKS2) [M]
Cc1ccc2c(=O)[nH]c(CCCC(=O)N3CCC(C(=O)c4ccc(C(C)(C)O)cc4)CC3)nn12 [Compound C155, 2-(4-{4-[4-(1-Hydroxy-1-methyl-ethyl)-benzoyl]-piperidin-1-yl}-4-oxo-butyl)-7-methyl-3H-pyrrolo[2,1-f][1,2,4]triazin-4-one] | 0.57 | 600 | 1.6e-08 | 3.8e-10
COc1ccc(C(=O)C2CCN(C(=O)CCCc3nn4cc(C)cc4c(=O)[nH]3)CC2)cc1F [Compound C158, 2-{4-[4-(3-Fluoro-4-methoxy-benzoyl)-piperidin-1-yl]-4-oxo-butyl}-6-methyl-3H-pyrrolo[2,1-f][1,2,4]triazin-4-one] | 0.44 | 2100 | 4.4e-09 | 9.2e-10
COc1ccc(C(=O)C2CCN(C(=O)CCCc3nn4cc(C)cc4c(=O)[nH]3)CC2)cn1 [Compound C159, 2-{4-[4-(6-Methoxy-pyridine-3-carbonyl)-piperidin-1-yl]-4-oxo-butyl}-6-methyl-3H-pyrrolo[2,1-f][1,2,4]triazin-4-one] | 1.2 | 2200 | 3.6e-08 | 2.7e-09
Cc1cc2c(=O)[nH]c(CCCC(=O)N3CCC(c4cnc(N)c(C#N)c4)CC3)nn2c1 [Compound C160, 6-Amino-1′-[4-(6-methyl-4-oxo-3,4-dihydro-pyrrolo[2,1-f][1,2,4]triazin-2-yl)-butyryl]-1′,2′,3′,4′,5′,6′-hexahydro-[3,4′]bipyridinyl-5-carbonitrile] | 1.8 | 3300 | 4.9e-08 | 1e-08
Cc1cc2c(=O)[nH]c(CCCC(=O)N3CCC(c4cnc(N)c(-c5ncccn5)c4)CC3)nn2c1 [Compound C161, 2-[4-(6-Amino-5-pyrimidin-2-yl-3′,4′,5′,6′-tetrahydro-2′H-[3,4′]bipyridinyl-1′-yl)-4-oxo-butyl]-6-methyl-3H-pyrrolo[2,1-f][1,2,4]triazin-4-one] | 0.62 | 4300 | 9.7e-09 | 2.9e-09
Cc1cc2c(=O)[nH]c(CCCC(=O)N3CCC(c4nnc(-c5ccccc5)o4)CC3)nn2c1 [Compound C162, 6-Methyl-2-{4-oxo-4-[4-(5-phenyl-[1,3,4]oxadiazol-2-yl)-piperidin-1-yl]-butyl}-3H-pyrrolo[2,1-f][1,2,4]triazin-4-one] | 20 | 1400 | 5e-07 | 3.7e-08
Cc1cc2c(=O)[nH]c(CCCC(=O)N3CCC(Oc4ccc(C#N)cc4)CC3)nn2c1 [Compound C163, 4-{1-[4-(6-Methyl-4-oxo-3,4-dihydro-pyrrolo[2,1-f][1,2,4]triazin-2-yl)-butyryl]-piperidin-4-yloxy}-benzonitrile] | 21 | 1300 | 2e-07 | 2.5e-08
Cc1cc2c(=O)[nH]c(CCCC(=O)N3CCC(C(=O)c4ccc(F)cc4)CC3)nn2c1 [Compound C164, 2-{4-[4-(4-Fluoro-benzoyl)-piperidin-1-yl]-4-oxo-butyl}-6-methyl-3H-pyrrolo[2,1-f][1,2,4]triazin-4-one] | 0.79 | 2200 | 2.5e-08 | 2.8e-09
COc1ccc(C(=O)C2CCN(C(=O)CCCc3nn4cc(C)cc4c(=O)[nH]3)CC2)cc1C [Compound C165, 2-{4-[4-(4-Methoxy-3-methyl-benzoyl)-piperidin-1-yl]-4-oxo-butyl}-6-methyl-3H-pyrrolo[2,1-f][1,2,4]triazin-4-one] | 0.22 | 2100 | 1.7e-09 | 2.2e-10
Cc1cc2c(=O)[nH]c(CCCC(=O)N3CCC(C(=O)c4ccc(C(C)(C)O)cc4)CC3)nn2c1 [Compound C166, 2-(4-{4-[4-(1-Hydroxy-1-methyl-ethyl)-benzoyl]-piperidin-1-yl}-4-oxo-butyl)-6-methyl-3H-pyrrolo[2,1-f][1,2,4]triazin-4-one] | 12 | 1400 | 1.8e-07 | 1.7e-08
Cc1cc2c(=O)[nH]c(CCCC(=O)N3CCC(C(=O)c4cnn(C)c4)CC3)nn2c1 [Compound C168, 6-Methyl-2-{4-[4-(1-methyl-1H-pyrazole-4-carbonyl)-piperidin-1-yl]-4-oxo-butyl}-3H-pyrrolo[2,1-f][1,2,4]triazin-4-one] | 1 | 5800 | 3.4e-08 | 3.5e-09
COc1ccc(C(=O)C2CCN(C(=O)CCCc3nn4cc(F)cc4c(=O)[nH]3)CC2)cc1F [Compound C169, 6-Fluoro-2-{4-[4-(3-fluoro-4-methoxy-benzoyl)-piperidin-1-yl]-4-oxo-butyl}-3H-pyrrolo[2,1-f][1,2,4]triazin-4-one] | 0.17 | 2200 | 2.5e-09 | 2.2e-10
COc1ccc(C(=O)C2CCN(C(=O)CCCc3nn4cc(F)cc4c(=O)[nH]3)CC2)cn1 [Compound C170, 6-Fluoro-2-{4-[4-(6-methoxy-pyridine-3-carbonyl)-piperidin-1-yl]-4-oxo-butyl}-3H-pyrrolo[2,1-f][1,2,4]triazin-4-one] | 0.67 | 2800 | 1.9e-08 | 9.9e-10
N#Cc1cc(C2CCN(C(=O)CCCc3nn4cc(F)cc4c(=O)[nH]3)CC2)cnc1N [Compound C171, 6-Amino-1′-[4-(6-fluoro-4-oxo-3,4-dihydro-pyrrolo[2,1-f][1,2,4]triazin-2-yl)-butyryl]-1′,2′,3′,4′,5′,6′-hexahydro-[3,4′]bipyridinyl-5-carbonitrile] | 1.7 | 6300 | 4.6e-08 | 3.6e-09
Nc1ncc(C2CCN(C(=O)CCCc3nn4cc(F)cc4c(=O)[nH]3)CC2)cc1-c1ncccn1 [Compound C172, 2-[4-(6-Amino-5-pyrimidin-2-yl-3′,4′,5′,6′-tetrahydro-2′H-[3,4′]bipyridinyl-1′-yl)-4-oxo-butyl]-6-fluoro-3H-pyrrolo[2,1-f][1,2,4]triazin-4-one] | 0.61 | 2500 | 6.8e-09 | 5.3e-10
O=C(CCCc1nn2cc(F)cc2c(=O)[nH]1)N1CCC(c2nnc(-c3ccccc3)o2)CC1 [Compound C173, 6-Fluoro-2-{4-oxo-4-[4-(5-phenyl-[1,3,4]oxadiazol-2-yl)-piperidin-1-yl]-butyl}-3H-pyrrolo[2,1-f][1,2,4]triazin-4-one] | 15 | 3200 | 8.5e-08 | 1.4e-08
N#Cc1ccc(OC2CCN(C(=O)CCCc3nn4cc(F)cc4c(=O)[nH]3)CC2)cc1 [Compound C174, 4-{1-[4-(6-Fluoro-4-oxo-3,4-dihydro-pyrrolo[2,1-f][1,2,4]triazin-2-yl)-butyryl]-piperidin-4-yloxy}-benzonitrile] | 64 | 270 | 7.8e-07 | 4.9e-08
O=C(c1ccc(F)cc1)C1CCN(C(=O)CCCc2nn3cc(F)cc3c(=O)[nH]2)CC1 [Compound C175, 6-Fluoro-2-{4-[4-(4-fluoro-benzoyl)-piperidin-1-yl]-4-oxo-butyl}-3H-pyrrolo[2,1-f][1,2,4]triazin-4-one] | 0.47 | 4900 | 3.7e-08 | 8.1e-10
CC(C)(O)c1ccc(C(=O)C2CCN(C(=O)CCCc3nn4cc(F)cc4c(=O)[nH]3)CC2)cc1 [Compound C177, 6-Fluoro-2-(4-{4-[4-(1-hydroxy-1-methyl-ethyl)-benzoyl]-piperidin-1-yl}-4-oxo-butyl)-3H-pyrrolo[2,1-f][1,2,4]triazin-4-one] | 7.1 | 8000 | 6.7e-08 | 4.8e-09
COc1ccc(C(=O)C2CCN(C(=O)CCCc3nc4c(ccn4C)c(=O)[nH]3)CC2)cc1F [Compound C180, 2-{4-[4-(3-Fluoro-4-methoxy-benzoyl)-piperidin-1-yl]-4-oxo-butyl}-7-methyl-3,7-dihydro-pyrrolo[2,3-d]pyrimidin-4-one] | 0.18 | 1900 | 3.3e-09 | < 1e-10
COc1ccc(C(=O)C2CCN(C(=O)CCCc3nc4c(ccn4C)c(=O)[nH]3)CC2)cn1 [Compound C181, 2-{4-[4-(6-Methoxy-pyridine-3-carbonyl)-piperidin-1-yl]-4-oxo-butyl}-7-methyl-3,7-dihydro-pyrrolo[2,3-d]pyrimidin-4-one] | 0.65 | 2300 | 7.3e-09 | 2.4e-10
Cn1ccc2c(=O)[nH]c(CCCC(=O)N3CCC(c4cnc(N)c(C#N)c4)CC3)nc21 [Compound C182, 6-Amino-1′-[4-(7-methyl-4-oxo-4,7-dihydro-3H-pyrrolo[2,3-d]pyrimidin-2-yl)-butyryl]-1′,2′,3′,4′,5′,6′-hexahydro-[3,4′]bipyridinyl-5-carbonitrile] | 1.3 | 1500 | 2.4e-07 | 6.5e-10
Cn1ccc2c(=O)[nH]c(CCCC(=O)N3CCC(c4cnc(N)c(-c5ncccn5)c4)CC3)nc21 [Compound C183, 2-[4-(6-Amino-5-pyrimidin-2-yl-3′,4′,5′,6′-tetrahydro-2′H-[3,4′]bipyridinyl-1′-yl)-4-oxo-butyl]-7-methyl-3,7-dihydro-pyrrolo[2,3-d]pyrimidin-4-one] | 0.54 | 1600 | 1e-08 | 2.9e-10

Source: US9809598B2 (Merck Patent GmbH, priority 2014, dated 2017)
